# In US11384060B2, “Amide compounds and use thereof” (ALPHALA CO., LTD., priority 2017, dated 2022):
# Like-named read-outs stand apart in the source and are kept apart here.
# Legend:
# [1] = molecular target: T1, glucagon receptor (GCGR) (Homo sapiens, UniProt P47871); assay: I125-glucagon binding assay (competition, GCGR membrane fractions)
# T1 construct: expressed in transfected cells; host or cells: CHO-K1 cells overexpressing GCGR (membrane fractions)
# How it was run: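 Competition of 0.0625 nM (final) I^125-glucagon for 30 min at 25° C, after 5 min compound preincubation, using 7.5 μg/well GCGR-overexpressing CHO-K1 membranes in 50 mM Tris pH 7.4, 0.5% BSA. Filtration onto PEI-coated GF/B, micro-beta counting, and non-linear regression gave IC50.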
# [2] = molecular target: T2, glucagon receptor (GCGR) overexpressed CHO-K1 cells or human primary hepatocytes (Homo sapiens, UniProt P47871); assay: Glucagon cAMP inhibition assay (Cisbio cAMP Dynamic 2 HTRF); type: cell-based
# T2 construct: expressed in transfected cells; host or cells: GCGR overexpressed CHO-K1 cells or human primary hepatocytes (endogenous receptor)
# T2 sequence (P47871 26-477): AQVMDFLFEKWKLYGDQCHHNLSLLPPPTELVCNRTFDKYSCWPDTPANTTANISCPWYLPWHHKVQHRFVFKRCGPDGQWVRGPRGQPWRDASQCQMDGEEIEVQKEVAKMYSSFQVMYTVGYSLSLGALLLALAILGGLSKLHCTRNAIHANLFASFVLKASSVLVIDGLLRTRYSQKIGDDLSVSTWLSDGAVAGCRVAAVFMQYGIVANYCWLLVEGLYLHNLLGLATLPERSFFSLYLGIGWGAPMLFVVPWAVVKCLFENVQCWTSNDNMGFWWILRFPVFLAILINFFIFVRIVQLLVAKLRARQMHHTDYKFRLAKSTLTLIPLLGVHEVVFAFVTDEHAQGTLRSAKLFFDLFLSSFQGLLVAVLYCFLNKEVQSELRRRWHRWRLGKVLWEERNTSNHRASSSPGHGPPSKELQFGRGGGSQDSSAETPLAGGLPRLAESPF
# How it was run: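 HTRF read-out of glucagon-induced cAMP, with IC50 from non-linear regression. Cells (GCGR CHO-K1 or human primary hepatocytes) in HBSS/0.1% BSA/800 nM IBMX took compound dilutions for 30 min (final DMSO 1%), then EC50-level glucagon for 30 min at room temperature, then a 60 min lysis/detection step.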
# [3] = competition with I125-glucagon 0.0625 nM, membrane fractions of GCGR overexpressed CHO-K1 cells
# [4] = inhibition of glucagon (EC50 concentration) induced cAMP production
# T1 sequence (P47871 26-477): as above
Compound,IC50 [1],IC50 cAMP [2],"IC50 [1, 3]","IC50 cAMP [2, 4]",also measured
"O=C(NCCS(=O)(=O)O)c1ccc(N[C@@H](Cc2ccccc2)C(=O)Nc2ccc(-c3cc4ccccc4o3)cc2)cc1 [Compound 23-24, (S)-2-(4-((1-((4-(benzofuran-2-yl)phenyl)amino)-1-oxo-3-phenylpropan-2-yl)amino)benzamido)ethane-1-sulfonic Acid]",–,–,–,–,IC50 ([1]; uM): > 10 µM; IC50 cAMP ([2]; uM): >10 µM
"O=C(O)CCNC(=O)c1ccc(NC(COc2ccc(-c3ccc(C(F)(F)F)cc3)cc2)c2ccccc2)cc1 (stereo not shown) [Compound 1-28, 3-(4-((1-phenyl-2-((4′-(trifluoromethyl)-[1,1′-biphenyl]-4-yl)oxy)ethyl)amino)benzamido)propanoic Acid]",–,–,0.15 µM,0.2877 µM,–
"CC(C)[C@@H](COc1ccc(-c2cc3ccccc3o2)cc1)Nc1ccc(C(=O)NCCC(=O)O)cn1 [Compound 4-2, (S)-3-(6-((1-(4-(benzofuran-2-yl)phenoxy)-3-methylbutan-2-yl)amino)nicotinamido)propanoic Acid]",–,–,0.09 µM,0.1213 µM,–
"CC[C@H](C)[C@@H](COc1ccc(-c2ccc(Cl)cc2Cl)cc1)Nc1ccc(C(=O)NCCC(=O)O)cn1 [Compound 4-3, 3-(6-(((2S,3S)-1-((2′,4′-dichloro-[1,1′-biphenyl]-4-yl)oxy)-3-methylpentan-2-yl)amino)nicotinamido)propanoic Acid]",–,–,0.61 µM,0.414 µM,–
"CCCC[C@@H](COc1ccc(-c2ccc(C(F)(F)F)cc2)cc1)Nc1ccc(C(=O)NCCC(=O)O)cc1 [Compound 1-15, (S)-3-(4-((1-((4′-(trifluoromethyl)-[1,1′-biphenyl]-4-yl)oxy)hexan-2-yl)amino)benzamido)propanoic Acid]",–,–,0.211 µM,0.3388 µM,–
"CCCC[C@@H](COc1ccc(-c2ccc(Cl)cc2Cl)cc1)Nc1ccc(C(=O)NCc2nnn[nH]2)cc1 [Compound 1-18, (S)—N-((1H-tetrazol-5-yl)methyl)-4-((1-((2′,4′-dichloro-[1,1′-biphenyl]-4-yl)oxy)hexan-2-yl)amino)benzamide]",–,–,0.031 µM,1.564 µM,–
"CC(C)COC[C@@H](Cc1ccc(-c2ccc(OC(F)(F)F)cc2)cc1)Nc1ccc(C(=O)NCCC(=O)O)cc1 [Compound 19-19, (R)-3-(4-((1-isobutoxy-3-(4′-(trifluoromethoxy)-[1,1′-biphenyl]-4-yl)propan-2-yl)amino)benzamido)propanoic Acid]",0.317 µM,0.5825 µM,–,–,–
"CCCC[C@@H](COc1ccc(-c2ccc(C(F)(F)F)cc2Cl)c(Cl)c1)Nc1ccc(C(=O)NCCC(=O)O)cc1 [Compound 3-8, (S)-3-(4-((1-((2,2′-dichloro-4′-(trifluoromethyl)-[1,1′-biphenyl]-4-yl)oxy)hexan-2-yl)amino)benzamido)propanoic Acid]",–,–,0.026 µM,0.035 µM,–
"CC(C)[C@@H](COc1ccc(-c2ccc(C(F)(F)F)cc2Cl)c(F)c1)Nc1ccc(C(=O)NCCC(=O)O)cc1 [Compound 8-5, (S)-3-(4-((1-((2′-chloro-2-fluoro-4′-(trifluoromethyl)-[1,1′-biphenyl]-4-yl)oxy)-3-methylbutan-2-yl)amino)benzamido)propanoic Acid]",–,–,0.075 µM,0.085 µM,–
CC(C)[C@H](COc1ccc(-c2ccc(C(F)(F)F)cc2Cl)cc1)Nc1ccc(C(=O)NCCC(=O)O)cc1 [Compound 1-35],–,–,0.145 µM,0.2093 µM,–
"CC(C)[C@@H](COc1cc(F)c(-c2ccc(C(F)(F)F)cc2Cl)c(F)c1)Nc1ccc(C(=O)NCCC(=O)O)cc1 [Compound 7-2, (S)-3-(4-((1-((2′-chloro-2,6-difluoro-4′-(trifluoromethyl)-[1,1′-biphenyl]-4-yl)oxy)-3-methylbutan-2-yl)amino)benzamido)propanoic Acid]",–,–,0.177 µM,0.201 µM,–
"CCCC[C@@H](COc1ccc(-c2ccc(C(F)(F)F)cc2F)c(OC)c1)Nc1ccc(C(=O)NCCC(=O)O)cn1 [Compound 14-2, (S)-3-(6-((1-((2′-fluoro-2-methoxy-4′-(trifluoromethyl)-[1,1′-biphenyl]-4-yl)oxy)hexan-2-yl)amino)nicotinamido)propanoic Acid]",–,–,0.074 µM,0.508 µM,–
"CC(C)[C@@H](COc1ccc(-c2ccc(C(F)(F)F)cc2Cl)c(Cl)c1)Nc1ccc(C(=O)NC[C@@H](O)C(=O)O)cc1 [Compound 3-2, (R)-3-(4-(((S)-1-((2,2′-dichloro-4′-(trifluoromethyl)-[1,1′-biphenyl]-4-yl)oxy)-3-methylbutan-2-yl)amino)benzamido)-2-hydroxypropanoic Acid]",–,–,0.135 µM,>10 µM,–

# Continued, in another order:
IC50 [1],IC50 cAMP [2],"IC50 [1, 3]","IC50 cAMP [2, 4]",Compound,also measured
0.087 µM,3.6 µM,–,–,"CC(C)C[C@H](Nc1ccc(C(=O)NCCC(=O)O)cc1)C(=O)Nc1ccc(-c2ccc(Cl)cc2Cl)cc1 [Compound 23-1, (S)-3-(4-((1-((2′,4′-dichloro-[1,1′-biphenyl]-4-yl)amino)-4-methyl-1-oxopentan-2-yl)amino)benzamido)propanoic Acid]",–
–,0.1671 µM,–,–,"CCOC(=O)CCNC(=O)c1ccc(N[C@H](Cc2ccc(-c3ccc(Cl)cc3Cl)cc2)C(=O)Nc2ccc(C(F)(F)F)cc2)cc1 [Compound 24-17, Ethyl (R)-3-(4-((3-(2′,4′-dichloro-[1,1′-biphenyl]-4-yl)-1-oxo-1-((4-(trifluoromethyl)phenyl)amino)propan-2-yl)amino)benzamido)propanoate]",IC50 ([1]; uM): > 30 µM
2.73 µM,2.719 µM,–,–,"C[C@@H](Cc1ccc(-c2ccc(C(F)(F)F)cc2)cc1)Nc1ccc(C(=O)NCCC(=O)O)cc1 [Compound 19-3, (S)-3-(4-((1-(4′-(trifluoromethyl)-[1,1′-biphenyl]-4-yl)propan-2-yl)amino)benzamido)propanoic Acid]",–
13.6 µM,>30 µM,–,–,"CCCC[C@@H](COc1nnc(-c2ccc(C(F)(F)F)cc2F)o1)Nc1ccc(C(=O)NCCC(=O)O)cc1 [Compound 22-3, (S)-3-(4-((1-((5-(2-fluoro-4-(trifluoromethyl)phenyl)-1,3,4-oxadiazol-2-yl)oxy)hexan-2-yl)amino)benzamido)propanoic Acid]",–
0.468 µM,1.609 µM,–,–,"CC(C)[C@@H](COc1ccc(-c2nc3ccccc3s2)cn1)Nc1ccc(C(=O)NCCC(=O)O)cc1 [Compound 15-37, (S)-3-(4-((1-((5-(benzo[d]thiazol-2-yl)pyridin-2-yl)oxy)-3-methylbutan-2-yl)amino)benzamido)propanoic Acid]",–
0.455 µM,4.952 µM,–,–,"CCCOC[C@H](Cc1ccc(-c2cc3ccccc3[nH]2)cc1)Nc1ccc(C(=O)NCCC(=O)O)cc1 [Compound 19-27, (S)-3-(4-((1-(4-(1H-indol-2-yl)phenyl)-3-propoxypropan-2-yl)amino)benzamido)propanoic Acid]",–
1.21 µM,0.214 µM,–,–,"O=C(O)CCNC(=O)c1ccc(N[C@H](Cc2ccc(-c3cc4ccccc4o3)cc2)C(=O)Nc2cc(F)cc(F)c2)cc1 [Compound 24-24, (R)-3-(4-((3-(4-(benzofuran-2-yl)phenyl)-1-((3,5-difluorophenyl)amino)-1-oxopropan-2-yl)amino)benzamido)propanoic Acid]",–
0.226 µM,–,–,–,"CCOC(=O)CCNC(=O)c1ccc(N[C@H](Cc2ccc(-c3ccc(C(C)(C)C)cc3)cc2)C(=O)Nc2ccc(OC(F)(F)F)cc2)cc1 [Compound 24-25, Ethyl (R)-3-(4-((3-(4′-(tert-butyl)-[1,1′-biphenyl]-4-yl)-1-oxo-1-((4-(trifluoromethoxy)phenyl)amino)propan-2-yl)amino)benzamido)propanoate]",IC50 cAMP ([2]; uM): >10 µM
–,–,0.609 µM,1.266 µM,"CC[C@H](C)[C@@H](COc1ccc(-c2ccc(C(F)(F)F)cc2Cl)nn1)Nc1ccc(C(=O)NCCC(=O)O)cc1 [Compound 17-4, 3-(4-(((2S,3S)-1-((6-(2-chloro-4-(trifluoromethyl)phenyl)pyridazin-3-yl)oxy)-3-methylpentan-2-yl)amino)benzamido)propanoic Acid]",–
0.388 µM,7.356 µM,–,–,"O=C(NCc1nn[nH]n1)c1ccc(N[C@H](COc2ccc(-c3cc4ccccc4o3)cn2)c2ccccc2)cc1 [Compound 15-1, (S)—N-((2H-tetrazol-5-yl)methyl)-4-((2-((5-(benzofuran-2-yl)pyridin-2-yl)oxy)-1-phenylethyl)amino)benzamide]",–
0.049 µM,0.1225 µM,–,–,"Cc1nc(OC[C@H](CC(C)C)Nc2ccc(C(=O)NCCC(=O)O)cc2)ccc1-c1ccc(Cl)cc1Cl [Compound 18-8, (S)-3-(4-((1-((5-(2,4-dichlorophenyl)-6-methylpyridin-2-yl)oxy)-4-methylpentan-2-yl)amino)benzamido)propanoic Acid]",–
–,7.4 µM,–,–,"CCOC(=O)CCNC(=O)c1ccc(N[C@@H](Cc2cccc3ccccc23)C(=O)Nc2ccc(C(C)(C)C)cc2)cc1 [Compound 23-17, Ethyl (S)-3-(4-((1-((4-(tert-butyl)phenyl)amino)-3-(naphthalen-1-yl)-1-oxopropan-2-yl)amino)benzamido)propanoate]",IC50 ([1]; uM): > 10 µM
4.27 µM,0.0643 µM,–,–,"CCOC(=O)CCNC(=O)c1ccc(N[C@@H](Cc2ccccc2)C(=O)Nc2ccc(-c3cc4ccccc4o3)cc2)cc1 [Compound 23-7, Ethyl (S)-3-(4-((1-((4-(benzofuran-2-yl)phenyl)amino)-1-oxo-3-phenylpropan-2-yl)amino)benzamido)propanoate]",–
